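Cells were grown in 96-well plates and exposed to each compound for 48 hours at five concentrations; endpoints were interpolated linearly between bracketing concentrations, or set to the highest concentration if not reached. TGI marks complete inhibition of growth.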
Columns and labels:
Assay in all cases: growth of human tumour cells (NCI), 48 h
786-0 renal = tested on: 786-0 renal
A498 renal = tested on: A498 renal
A549 NSCLC = tested on: A549 NSCLC
ACHN renal = tested on: ACHN renal
CAKI-1 renal = tested on: CAKI-1 renal
COLO 205 colon = tested on: COLO 205 colon
DLD-1 colon = tested on: DLD-1 colon
DMS 114 small cell lung = tested on: DMS 114 small cell lung
DMS 273 small cell lung = tested on: DMS 273 small cell lung
EKVX NSCLC = tested on: EKVX NSCLC
HCC-2998 colon = tested on: HCC-2998 colon
HCT-116 colon = tested on: HCT-116 colon
HCT-15 colon = tested on: HCT-15 colon
HOP-18 NSCLC = tested on: HOP-18 NSCLC
HOP-62 NSCLC = tested on: HOP-62 NSCLC
HOP-92 NSCLC = tested on: HOP-92 NSCLC
HT29 colon = tested on: HT29 colon
IGROV1 ovarian = tested on: IGROV1 ovarian
KM12 colon = tested on: KM12 colon
KM20L2 colon = tested on: KM20L2 colon
LOX IMVI melanoma = tested on: LOX IMVI melanoma
LXFL 529 NSCLC = tested on: LXFL 529 NSCLC
M14 melanoma = tested on: M14 melanoma
M19-MEL melanoma = tested on: M19-MEL melanoma
MALME-3M melanoma = tested on: MALME-3M melanoma
NCI-H226 lung = tested on: NCI-H226 lung
NCI-H23 lung = tested on: NCI-H23 lung
NCI-H460 lung = tested on: NCI-H460 lung
OVCAR-3 ovarian = tested on: OVCAR-3 ovarian
OVCAR-4 ovarian = tested on: OVCAR-4 ovarian
OVCAR-5 ovarian = tested on: OVCAR-5 ovarian
OVCAR-8 ovarian = tested on: OVCAR-8 ovarian
RPMI-8226 leukemia = tested on: RPMI-8226 leukemia
RXF 393 renal = tested on: RXF 393 renal
SF-268 CNS = tested on: SF-268 CNS
SF-295 CNS = tested on: SF-295 CNS
SF-539 CNS = tested on: SF-539 CNS
SK-MEL-2 melanoma = tested on: SK-MEL-2 melanoma
SK-MEL-28 melanoma = tested on: SK-MEL-28 melanoma
SK-OV-3 ovarian = tested on: SK-OV-3 ovarian
SN12C renal = tested on: SN12C renal
SNB-19 CNS = tested on: SNB-19 CNS
SNB-75 CNS = tested on: SNB-75 CNS
SNB-78 CNS = tested on: SNB-78 CNS
SW-620 colon = tested on: SW-620 colon
TK-10 renal = tested on: TK-10 renal
U251 CNS = tested on: U251 CNS
UACC-257 melanoma = tested on: UACC-257 melanoma
UACC-62 melanoma = tested on: UACC-62 melanoma
UO-31 renal = tested on: UO-31 renal
XF 498 CNS = tested on: XF 498 CNS
CCRF-CEM leukemia = tested on: CCRF-CEM leukemia
K-562 leukemia = tested on: K-562 leukemia
MOLT-4 leukemia = tested on: MOLT-4 leukemia
NCI-H522 lung = tested on: NCI-H522 lung
SK-MEL-5 melanoma = tested on: SK-MEL-5 melanoma
HL-60(TB) leukemia = tested on: HL-60(TB) leukemia

SMILES: CCOc1ccccc1N1C(=O)C(=O)C(c2nc3ccccc3s2)C(=O)C1=O
- TGI (786-0 renal): 20.8 µM
- TGI (A498 renal): 39 µM
- TGI (A549 NSCLC): > 100 µM
- TGI (ACHN renal): 54 µM
- TGI (CAKI-1 renal): > 100 µM
- TGI (COLO 205 colon): > 100 µM
- TGI (DLD-1 colon): > 100 µM
- TGI (DMS 114 small cell lung): > 100 µM
- TGI (DMS 273 small cell lung): > 100 µM
- TGI (EKVX NSCLC): > 100 µM
- TGI (HCC-2998 colon): > 100 µM
- TGI (HCT-116 colon): > 100 µM
- TGI (HCT-15 colon): > 100 µM
- TGI (HOP-18 NSCLC): 69.8 µM
- TGI (HOP-62 NSCLC): > 100 µM
- TGI (HOP-92 NSCLC): > 100 µM
- TGI (HT29 colon): > 100 µM
- TGI (IGROV1 ovarian): > 100 µM
- TGI (KM12 colon): > 100 µM
- TGI (KM20L2 colon): > 100 µM
- TGI (LOX IMVI melanoma): > 100 µM
- TGI (LXFL 529 NSCLC): > 100 µM
- TGI (M14 melanoma): > 100 µM
- TGI (M19-MEL melanoma): > 100 µM
- TGI (MALME-3M melanoma): > 100 µM
- TGI (NCI-H226 lung): > 100 µM
- TGI (NCI-H23 lung): > 100 µM
- TGI (NCI-H460 lung): > 100 µM
- TGI (OVCAR-3 ovarian): 44.2 µM
- TGI (OVCAR-4 ovarian): 17.8 µM
- TGI (OVCAR-5 ovarian): > 100 µM
- TGI (OVCAR-8 ovarian): > 100 µM
- TGI (RPMI-8226 leukemia): > 100 µM
- TGI (RXF 393 renal): > 100 µM
- TGI (SF-268 CNS): > 100 µM
- TGI (SF-295 CNS): > 100 µM
- TGI (SF-539 CNS): > 100 µM
- TGI (SK-MEL-2 melanoma): > 100 µM
- TGI (SK-MEL-28 melanoma): > 100 µM
- TGI (SK-OV-3 ovarian): > 100 µM
- TGI (SN12C renal): > 100 µM
- TGI (SNB-19 CNS): > 100 µM
- TGI (SNB-75 CNS): > 100 µM
- TGI (SNB-78 CNS): > 100 µM
- TGI (SW-620 colon): > 100 µM
- TGI (TK-10 renal): > 100 µM
- TGI (U251 CNS): > 100 µM
- TGI (UACC-257 melanoma): > 100 µM
- TGI (UACC-62 melanoma): > 100 µM
- TGI (UO-31 renal): > 100 µM
- TGI (XF 498 CNS): > 100 µM

SMILES: Cc1cc(C)nc(NS(=O)(=O)c2ccc(NC(=O)c3cccc4c(Nc5ccc(S(=O)(=O)Nc6nc(C)cc(C)n6)cc5)c5ccc(Cl)cc5nc34)cc2)n1
- TGI (786-0 renal): > 100 µM
- TGI (A498 renal): > 100 µM
- TGI (A549 NSCLC): > 100 µM
- TGI (ACHN renal): > 100 µM
- TGI (CAKI-1 renal): 77.1 µM
- TGI (CCRF-CEM leukemia): 79.8 µM
- TGI (COLO 205 colon): > 100 µM
- TGI (DLD-1 colon): > 100 µM
- TGI (DMS 114 small cell lung): 79.8 µM
- TGI (DMS 273 small cell lung): > 100 µM
- TGI (EKVX NSCLC): > 100 µM
- TGI (HCC-2998 colon): > 100 µM
- TGI (HCT-116 colon): > 100 µM
- TGI (HCT-15 colon): > 100 µM
- TGI (HOP-18 NSCLC): > 100 µM
- TGI (HOP-62 NSCLC): 71.9 µM
- TGI (HOP-92 NSCLC): 62.6 µM
- TGI (HT29 colon): > 100 µM
- TGI (IGROV1 ovarian): > 100 µM
- TGI (K-562 leukemia): 88.6 µM
- TGI (KM12 colon): > 100 µM
- TGI (KM20L2 colon): > 100 µM
- TGI (LOX IMVI melanoma): > 100 µM
- TGI (LXFL 529 NSCLC): > 100 µM
- TGI (M14 melanoma): > 100 µM
- TGI (M19-MEL melanoma): > 100 µM
- TGI (MALME-3M melanoma): 50.3 µM
- TGI (MOLT-4 leukemia): > 100 µM
- TGI (NCI-H23 lung): > 100 µM
- TGI (NCI-H460 lung): > 100 µM
- TGI (NCI-H522 lung): 54.7 µM
- TGI (OVCAR-3 ovarian): 58.3 µM
- TGI (OVCAR-4 ovarian): > 100 µM
- TGI (OVCAR-5 ovarian): > 100 µM
- TGI (OVCAR-8 ovarian): > 100 µM
- TGI (RPMI-8226 leukemia): 91.9 µM
- TGI (RXF 393 renal): > 100 µM
- TGI (SF-268 CNS): > 100 µM
- TGI (SF-295 CNS): > 100 µM
- TGI (SF-539 CNS): > 100 µM
- TGI (SK-MEL-2 melanoma): > 100 µM
- TGI (SK-MEL-28 melanoma): > 100 µM
- TGI (SK-MEL-5 melanoma): 42.7 µM
- TGI (SK-OV-3 ovarian): 77.1 µM
- TGI (SN12C renal): > 100 µM
- TGI (SNB-19 CNS): > 100 µM
- TGI (SNB-75 CNS): 67.9 µM
- TGI (SNB-78 CNS): > 100 µM
- TGI (SW-620 colon): > 100 µM
- TGI (TK-10 renal): > 100 µM
- TGI (U251 CNS): > 100 µM
- TGI (UACC-257 melanoma): 62.9 µM
- TGI (UACC-62 melanoma): 56.2 µM
- TGI (UO-31 renal): 82 µM
- TGI (XF 498 CNS): 59.8 µM

SMILES: C#C[C@]1(O)CCC2C3CCc4cc(Oc5nc(F)nc(-n6c(C)nc7cc8ccccc8cc76)n5)ccc4C3CCC21C (some centres not stated)
- TGI (786-0 renal): > 100 µM
- TGI (A549 NSCLC): > 100 µM
- TGI (ACHN renal): > 100 µM
- TGI (CCRF-CEM leukemia): > 100 µM
- TGI (COLO 205 colon): 45.8 µM
- TGI (DLD-1 colon): > 100 µM
- TGI (DMS 114 small cell lung): 53.8 µM
- TGI (DMS 273 small cell lung): > 100 µM
- TGI (EKVX NSCLC): > 100 µM
- TGI (HCC-2998 colon): > 100 µM
- TGI (HCT-116 colon): > 100 µM
- TGI (HL-60(TB) leukemia): > 100 µM
- TGI (HOP-18 NSCLC): > 100 µM
- TGI (HOP-62 NSCLC): > 100 µM
- TGI (HOP-92 NSCLC): > 100 µM
- TGI (HT29 colon): > 100 µM
- TGI (IGROV1 ovarian): > 100 µM
- TGI (K-562 leukemia): > 100 µM
- TGI (KM12 colon): > 100 µM
- TGI (KM20L2 colon): > 100 µM
- TGI (LOX IMVI melanoma): > 100 µM
- TGI (LXFL 529 NSCLC): > 100 µM
- TGI (M14 melanoma): > 100 µM
- TGI (M19-MEL melanoma): > 100 µM
- TGI (MALME-3M melanoma): > 100 µM
- TGI (MOLT-4 leukemia): > 100 µM
- TGI (NCI-H226 lung): > 100 µM
- TGI (NCI-H23 lung): > 100 µM
- TGI (NCI-H460 lung): 65.9 µM
- TGI (NCI-H522 lung): > 100 µM
- TGI (OVCAR-3 ovarian): > 100 µM
- TGI (OVCAR-8 ovarian): > 100 µM
- TGI (RPMI-8226 leukemia): > 100 µM
- TGI (RXF 393 renal): > 100 µM
- TGI (SF-268 CNS): > 100 µM
- TGI (SF-295 CNS): > 100 µM
- TGI (SF-539 CNS): > 100 µM
- TGI (SK-MEL-2 melanoma): > 100 µM
- TGI (SK-MEL-5 melanoma): > 100 µM
- TGI (SK-OV-3 ovarian): > 100 µM
- TGI (SN12C renal): > 100 µM
- TGI (SNB-19 CNS): > 100 µM
- TGI (SNB-75 CNS): > 100 µM
- TGI (SNB-78 CNS): > 100 µM
- TGI (SW-620 colon): > 100 µM
- TGI (TK-10 renal): > 100 µM
- TGI (U251 CNS): > 100 µM
- TGI (UACC-257 melanoma): > 100 µM
- TGI (UACC-62 melanoma): > 100 µM
- TGI (UO-31 renal): > 100 µM
- TGI (XF 498 CNS): > 100 µM
